Measured values taken from US12590131B2, “Antimicrobial peptides with alpha-core helices” (priority 2017, dated 2026).

Tested on: panel of prototypic gram-positive (S. aureus), gram-negative (S. typhimurium, P. aeruginosa, A. baumannii) and fungal (C. albicans) pathogens
Experiment: Radial diffusion assay for microbicidal activity, whole pathogen panel
Format: cell-based
Details: 10 μg peptide
Experimental: Select candidate microbicidal peptides were commercially synthesized by BioMatik (Biomatik USA, Wilmington, Delaware). Lyophilized peptides were reconstituted with ddIH20 and stored in aliquots at −20° C. LL-37 (Peptides International, Louisville, KY), a prototypic human AHAP, was used as a comparator in microbicidal assays.
Putative antimicrobial peptides were assayed for microbicidal activity using a well-established radial diffusion method modified to pH 5.5 or 7.5. A panel of microorganisms was tested: Gram-positive Staphylococcus aureus (ISP 479C, ISP 479R); Gram-negative Salmonella typhimurium (MS 5996s, MS 14028), Pseudomonas aeruginosa (PA01), Acinetobacter baumanni (19606) and the fungus Candida albicans (36082S, 36082R). Logarithmic phase organisms were inoculated (10^6 CFU/ml) into buffered agarose, and poured into plates. Peptides (10 μg) were introduced into wells in the seeded matrix, and incubated for 3 h at 37° C. Nutrient overlay medium was applied, and assays incubated at 37° C. or 30° C. for bacteria or fungi, respectively. After 24h, zones of inhibition were measured. Independent experiments were repeated a minimum of two times.

Substance	relative potency at pH 7.5 versus pH 5.5	microbicidal activity (zones of inhibition) (pH 7.5 and pH 5.5, FIG. 9)	microbicidal activity (zones of inhibition) (pH 5.5)	microbicidal activity (zones of inhibition) (pH 7.5)
hIFN-γ (AIHELIQVMAELSPAAKTGKRKRSQMLFRGRRASQ)	somewhat more potent at pH 7.5 than 5.5	significant activity against most organisms	–	–
bIFN-γ (KAISELYNVITELSKSNSKMRKRRQNLFRGWKASK)	somewhat more potent at pH 7.5 than 5.5	significant activity against most organisms	–	–
hIL7 (LCFLKRLLQEIKTCWNKILMGTKEH)	–	–	retained significant activity	somewhat less potent
tIL-5 (KRFIEKLRTFLRKLSRGAK)	–	markedly potent against all organisms	–	–
hIL-13 (EVAQFVKDLLLHLKKLFREGRFN)	–	–	retained significant activity	somewhat less potent
hIL-21 (KEFLERFKSLLQKMIHQHLSSRTHGSEDS)	–	–	retained significant activity	somewhat less potent
